{"source": "patent US20130005759A1", "about": "“SMALL MOLECULE MODIFIERS OF MICRORNA MIR-122” (North Carolina State University, priority 2010, published 2013)", "key": {"[1]": {"test_system": "hepatitis C virus (HCV) genotype 1a H77c RNA", "experiment": "HCV replication in Huh7 cells (HCV RNA by quantitative RT PCR)", "assay_type": "cell-based", "conditions": "Huh7, 10 μM (antagomir transfected), 48 hours", "description": "Aberrantly regulated miR-122 is involved in the development of heptocellular carcinoma (HCC). miR-122 is a cellular component required by hepatitis C virus (HCV) for viral replication. […] Due to the efficient down-regulation of miRNA-122 by the small molecule inhibitors 1 and 2, both compounds were tested for their ability to inhibit HCV replication in Huh7 cells. The pHtat2Neo/QR/KR/FV/SI plasmid (provided by Dr. Stanley Lemon of University of Texas Medical Branch (UTMB)) was used to generate genotype 1a H77c RNA, which was subsequently transfected into Huh7 cells.^16 The cells were then either transfected with a miR-122 antagomir (positive control), or treated with compounds 1 and 2 (10 μM), or DMSO (negative control). After 48 hours, total RNA was isolated and HCV RNA levels were measured by quantitative RT PCR (FIG. 7). In agreement with previous reports, the antagomir reduced HCV RNA levels to 20%.^6 Moreover, the small molecule miR-122 inhibitors 1 and 2 elicited a reduction in viral load to 48% and 47%, respectively.\nThe pHtat2Neo/QR/KR/FV/SI plasmid (provided by Dr. Stanley Lemon)^16 was linearized using XbaI (10 units, 50 μL reaction; New England Biolabs), followed by transcription with T7 RNA Polymerase (6 h, 37° C.), and purification on Microcon 10 columns. Huh7 cells were then grown to 60% confluency in a 6 well plate and transfected with 1 μg RNA using X-tremGENE transfection reagent (Roche Applied Science, 3:2 reagent/RNA ratio) in Opti-Mem media (Invitrogen). After a 4 hour incubation at 37° C., the transfection media was removed and replaced with standard growth media (2 mL) supplemented with 10 μM of 1 or 2 (1% DMSO final concentration). All experiments were conducted in triplicate for statistical validation. […] Quantitative RT-PCR was then performed as previously described using the general HCV RT-PCR Primers (5′: […] 3′ (SEQ ID NO:7) and 5′ […] 3′) (SEQ ID NO:8) and GADPH primers (5′ […] 3′ (SEQ ID NO:9) and 5′ […] 3′) (SEQ ID NO:10) as a standard control."}, "[2]": {"test_system": "psiCHECK-control vector (no miRNA target sequence)", "experiment": "psiCHECK-control vector luciferase counter-assay in Huh7 cells", "assay_type": "cell-based, human", "conditions": "Huh7, 10 μM", "excerpt": "(FIG. 3). […] The relative luciferase units were normalized to the corresponding DMSO signals. […] This confirms that compound 2 and the antagomir have similar effects on the reduction of miR-122 function in Huh7 cells.\nCompounds which elicited greater than a 5-fold increase of the relative luciferase units signal compared to the DMSO control were then re-assayed in triplicate to confirm the validity of the hit compound. Upon secondary validation of miR-122 inhibition, identical assays were repeated with the psiCHECK-Control vector to ascertain that the effect is specific to the miR-122 pathway, and not simply affecting the Renilla gene. In order to assess the relative degree of miR-122 inhibition, Huh7 cells were also co-transfected with either the psiCHECK-Control plasmid or the psiCHECK-miR122 plasmid (0.5 μg) and a miR-122 2′-OMe PS antagomir (50 pmol; 5′ […] (SEQ ID NO:4) 3′; IDT DNA)(2) using the X-tremGENE transfection reagent (Roche Applied Science, 4:2 reagent/DNA ratio). The transfection media was replaced with standard DMEM growth media after 4 hours and the cells were incubated for 48 hours prior to analysis with a Dual Luciferase Assay Kit (FIG. 3)."}, "pri-miR-122": {"test_system": "pri-miR-122", "experiment": "quantitative RT PCR of pri-miR-122 in Huh7 cells", "assay_type": "cell-based, human", "conditions": "Huh7, 10 μM, 48 hours, normalized to DMSO", "description": "(§1) The activity of the small molecule modifiers was analyzed by quantitative RT PCR in order to measure their direct effects on miR-122 expression levels in Huh7 cells. […] All experiments were conducted in triplicate, and the data was normalized to a DMSO control.\nEach treatment was conducted in triplicate to ensure statistical validity. Cells were then incubated at 37° C. for 48 hours (DMEM, 5% CO2). The media was removed, and cells were washed with PBS buffer (2×2 mL, pH 7.4) followed by RNA isolation with the mirPremier™ microRNA Isolation Kit (Aldrich). The RNA was quantified using a Nanodrop ND-1000 spectrophotometer and 10 ng of each RNA sample was reverse transcribed using the TaqMan™ microRNA Reverse Transcription Kit (Applied Biosystems) in conjunction with either the miR-122 or miR-21 TaqMan™ RT primer (16° C., 30 min; 42° C., 30 min; 85° C., 5 min). Quantitative Real Time PCR was conducted with a TaqMan™ 2× Universal PCR Master Mix and the appropriate TaqMan™ miRNA assay (Applied Biosystems) on a BioRad MyiQ RT-PCR thermocycler (1.3 μL RT PCR product; 95° C., 10 min; followed by 40 cycles of 95° C., 15 s; 60° C. 60 s). […]"}, "miR-122": {"test_system": "miR-122", "experiment": "quantitative RT PCR of mature miR-122 in Huh7 cells", "assay_type": "cell-based, human", "conditions": "Huh7, 10 μM, 48 hours", "description": "as §1\nEach treatment was conducted in triplicate to ensure statistical validity. Cells were then incubated at 37° C. for 48 hours (DMEM, 5% CO2). The media was removed, and cells were washed with PBS buffer (2×2 mL, pH 7.4) followed by RNA isolation with the mirPremier™ microRNA Isolation Kit (Aldrich). The RNA was quantified using a Nanodrop ND-1000 spectrophotometer and 10 ng of each RNA sample was reverse transcribed using the TaqMan™ microRNA Reverse Transcription Kit (Applied Biosystems) in conjunction with either the miR-122 or miR-21 TaqMan™ RT primer (16° C., 30 min; 42° C., 30 min; 85° C., 5 min). Quantitative Real Time PCR was conducted with a TaqMan™ 2× Universal PCR Master Mix and the appropriate TaqMan™ miRNA assay (Applied Biosystems) on a BioRad MyiQ RT-PCR thermocycler (1.3 μL RT PCR product; 95° C., 10 min; followed by 40 cycles of 95° C., 15 s; 60° C. 60 s). Threshold cycles were used to determine miRNA copy numbers, and the levels of miR-122 and miR-21 were compared via determination of threshold cycle (Ct) and conversion to copy number (copy number=10[(Ct−37.4)/−3.3]).^17 The data was then normalized to the DMSO control. The samples were also analyzed by real time PCR for the presence of pri-miR-122 transcript using the previously described primers (5′ […] 3′ (SEQ ID NO:5) and 5′ […] 3′ (SEQ ID NO:6); IDT DNA) and iQ SYBR Green Supermix for the real time PCR (95° C., 3 min; followed by 40 cycles of 95° C., 15 s; 60° C. 60 s).^14"}}}
{"smiles": "O=S(=O)(c1ccc2c(c1)CCCN2)N1CCC[C@H]2CCCC[C@@H]21", "note": "[Compound 2]", "values": [{"measurement": "HCV RNA levels / viral load reduced to", "setting": "[1]", "value": 47, "unit": "%"}, {"measurement": "normalized Renilla luciferase signal with psiCHECK-control vector", "setting": "[2]", "value": "no statistically significant alteration"}, {"measurement": "pri-miR-122 down-regulation to (remaining level)", "setting": "pri-miR-122", "value": 3, "unit": "%"}, {"measurement": "knock-down of mature miR-122 levels relative to DMSO treated cells", "setting": "miR-122", "value": 72, "unit": "%"}]}
{"smiles": "O=C(Nc1ccc2ccccc2c1)c1ccc(Cl)cc1Cl", "note": "[Compound 1]", "values": [{"measurement": "HCV RNA levels / viral load reduced to", "setting": "[1]", "value": 48, "unit": "%"}, {"measurement": "normalized Renilla luciferase signal with psiCHECK-control vector", "setting": "[2]", "value": "no statistically significant alteration"}, {"measurement": "pri-miR-122 down-regulation to (remaining level)", "setting": "pri-miR-122", "value": 22, "unit": "%"}, {"measurement": "knock-down of mature miR-122 levels relative to DMSO treated cells", "setting": "miR-122", "value": 45, "unit": "%"}]}
